Earlier results, collected in patent US20240207481A1, “KIT OF GEL-FORMING SOLUTIONS INTENDED FOR PREPARATION OF HYDROGEL BASED ON COVALENTLY CROSSLINKED HYDROXYPHENYL DERIVATIVE OF HYALURONAN FOR PREVENTION OF POSTOPERATIVE COMPLICATIONS RELATED TO FORMATION OF COLORECTAL ANASTOMOSIS, USE OF KIT, METHOD OF PREPARATION OF HYDROGEL AND USE THREREOF” (CONTIPRO A.S., priority 2020, published 2024).

## Oc1cc(Cl)ccc1Oc1ccc(Cl)cc1Cl [Triclosan, 2,4,4′-trichloro-2′-hydroxydiphenyl ether]
  solubility in water: poorly soluble
ethanol, chloroform, isopropanol
  solubility in polar organic solvents: well soluble
